Source: ChEMBL document CHEMBL1146724, “Enzyme cleavable and biotinylated photoaffinity ligand with diazirine” (Bioorg Med Chem Lett, 2004)

Experiment: Km was determined

SMILES | Km [µM]
CC(=O)CCCC[C@@H]1SCC2NC(=O)NC21 (some centres not stated) | 175
N[C@@H](Cc1ccccc1)C(=O)Nc1ccc([N+](=O)[O-])cc1 | 750
